# Measured values as given in patent US20150031668A1, “CHROMAN DERIVATIVES AS TRPM8 INHIBITORS” (AMGEN INC., priority 2013, published 2015).
# Counter-ions that a name gives are not always drawn.
# Molecular target: T1, human TRPM8 (Homo sapiens, UniProt Q7Z2W7)
# T1 construct: expressed in transfected cells; host or cells: Chinese hamster ovary (CHO) cells, T-REx tetracycline-inducible expression system (Invitrogen); co-transfected with pcDNA3.1 aequorin
# Assay: Luminescence readout assay for measuring intracellular calcium (aequorin, CHO cells expressing human TRPM8; icilin, L-menthol or cold activation)
# Assay type: cell-based
# Settings: CHO cells expressing human TRPM8, icilin activation (1 μM), aequorin luminescence; read-out: hTRPM8 IC50
# Procedure: Luminescence Readout Assay for Measuring Intracellular Calcium
# A stable Chinese hamster ovary cell line expressing human TRPM8 was generated using tetracycline inducible T-REx™ expression system from Invitrogen, Inc. (Carlsbad, Calif.). […] Twenty four hours before the assay, cells were seeded in 96-well plates and TRPM8 expression was induced with 0.5 μg/ml tetracycline. On the day of the assay, culture media was removed and cells were incubated with assay buffer
# Potential antagonists were added 2.5 min prior to the addition of agonist, 1 μM icilin, 100 μM L-menthol, or 1 min prior to the addition of cold buffer (<10° C.). The luminescence was measured by a CCD camera based FLASH-luminometer built by Amgen, Inc. A cooling device attached to FLASH luminometer was used for cold activation.
# T1 sequence (Q7Z2W7 whole entry): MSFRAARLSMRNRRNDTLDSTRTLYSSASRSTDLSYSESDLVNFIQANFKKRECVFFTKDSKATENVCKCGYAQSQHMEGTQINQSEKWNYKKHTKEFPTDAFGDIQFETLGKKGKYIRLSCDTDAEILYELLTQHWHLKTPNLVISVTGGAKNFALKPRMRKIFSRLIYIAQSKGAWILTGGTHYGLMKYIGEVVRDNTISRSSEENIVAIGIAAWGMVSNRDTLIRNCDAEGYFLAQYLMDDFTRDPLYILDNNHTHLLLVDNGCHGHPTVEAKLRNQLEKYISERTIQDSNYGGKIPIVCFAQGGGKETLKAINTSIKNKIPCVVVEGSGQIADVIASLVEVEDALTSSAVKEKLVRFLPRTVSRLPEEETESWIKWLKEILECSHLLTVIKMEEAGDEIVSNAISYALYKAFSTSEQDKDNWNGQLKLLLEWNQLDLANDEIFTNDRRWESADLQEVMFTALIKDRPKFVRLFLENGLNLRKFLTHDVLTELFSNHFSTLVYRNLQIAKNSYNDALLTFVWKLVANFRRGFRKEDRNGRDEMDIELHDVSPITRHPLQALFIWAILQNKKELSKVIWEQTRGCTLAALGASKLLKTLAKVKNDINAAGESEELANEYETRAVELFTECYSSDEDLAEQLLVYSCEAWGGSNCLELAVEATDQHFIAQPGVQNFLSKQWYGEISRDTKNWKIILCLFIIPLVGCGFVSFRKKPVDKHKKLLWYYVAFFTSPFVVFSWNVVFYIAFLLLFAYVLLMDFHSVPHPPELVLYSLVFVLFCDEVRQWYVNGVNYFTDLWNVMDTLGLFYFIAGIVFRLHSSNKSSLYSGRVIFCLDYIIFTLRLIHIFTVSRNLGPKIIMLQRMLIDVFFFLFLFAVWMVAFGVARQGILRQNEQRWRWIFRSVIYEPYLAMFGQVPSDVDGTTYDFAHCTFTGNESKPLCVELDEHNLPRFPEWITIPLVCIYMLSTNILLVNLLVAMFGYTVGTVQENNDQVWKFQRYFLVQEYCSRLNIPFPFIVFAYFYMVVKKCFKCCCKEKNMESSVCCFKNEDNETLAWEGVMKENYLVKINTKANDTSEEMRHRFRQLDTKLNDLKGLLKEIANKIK
row,IC50,SMILES
1,475 nM,"O=C(N[C@]1(c2ccc(OC(F)(F)F)cc2F)CCOc2cccnc21)c1ccc(=O)[nH]c1 [Example 173, (S)-N-(4-(2-fluoro-4-(trifluoromethoxy)phenyl)-3,4-dihydro-2H-pyrano[3,2-b]pyridin-4-yl)-6-oxo-1,6-dihydropyridine-3-carboxamide]"
2,1560 nM,"O=C(N[C@]1(c2ccc(OC(F)(F)F)c(F)c2)CCOc2cccnc21)c1ccc(C(=O)O)nc1 [Example 328, (S)-5-((4-(3-fluoro-4-(trifluoro-methoxy)phenyl)-3,4-dihydro-2H-pyrano[3,2-b]pyridin-4-yl)carbamoyl) picolinic acid 2,2,2-trifluoroacetate]"
3,2570 nM,"O=C(NC1(c2ccccc2)CCOc2cccnc21)c1ccc(F)cc1 (stereo not drawn) [Example 11, 4-fluoro-N-(4-phenyl-3,4-dihydro-2H-pyrano[3,2-b]pyridin-4-yl)benzamide]"
4,760 nM,"O=C(N[C@]1(c2ccc(OC(F)(F)F)c(F)c2)CCOc2cccnc21)N1CCOCC1 [Example 101, (S)-N-(4-(3-fluoro-4-(trifluoromethoxy)phenyl)-3,4-dihydro-2H-pyrano[3,2-b]pyridin-4-yl)morpholine-4-carboxamide]"
5,299 nM,"COc1ncc(-c2ccc([C@@]3(NC(=O)c4ccc(F)cc4)CCOc4cccnc43)cc2)c(OC)n1 [Example 149, (S)-N-(4-(4-(2,4-dimethoxypyrimidin-5-yl)phenyl)-3,4-dihydro-2H-pyrano[3,2-b]pyridin-4-yl)-4-fluorobenzamide]"
6,12 nM,"Cc1cc([C@@]2(NC(=O)c3ccc(=O)[nH]c3)CCOc3cccnc32)ccc1OC(F)(F)F [Example 199, (S)-N-(4-(3-methyl-4-(trifluoromethoxy)phenyl)-3,4-dihydro-2H-pyrano[3,2-b]pyridin-4-yl)-6-oxo-1,6-dihydropyridine-3-carboxamide]"
7,102 nM,"Cn1cncc1C(=O)N[C@]1(c2ccc(OC(F)(F)F)c(F)c2)CCOc2cccnc21 [Example 163, (S)—N-(4-(3-fluoro-4-(trifluoromethoxy)phenyl)-3,4-dihydro-2H-pyrano[3,2-b]pyridin-4-yl)-1-methyl-1H-imidazole-5-carboxamide 2,2,2-trifluoroacetate]"
8,3160 nM,"CNC(=O)c1ccc(-c2ccc([C@@]3(NC(=O)c4ccc(F)cc4)CCOc4cccnc43)cc2)cc1 [Example 138, (S)-4′-(4-(4-fluorobenzamido)-3,4-dihydro-2H-pyrano[3,2-b]pyridin-4-yl)-N-methyl-[1,1′-biphenyl]-4-carboxamide]"
9,24 nM,"O=C(N[C@]1(c2ccc(OC(F)(F)F)cc2)CCOc2cccnc21)c1cc2ccccc2cn1 [Example 248, (S)-N-(4-(4-(trifluoromethoxy)phenyl)-3,4-dihydro-2H-pyrano[3,2-b]pyridin-4-yl)isoquinoline-3-carboxamide formate]"
10,50 nM,"O=C(N[C@]1(c2ccc(-c3ccc(F)cc3)cc2)CCOc2cccnc21)c1ccc(F)cc1 [Example 114, (S)-4-fluoro-N-(4-(4′-fluoro-[1,1′-biphenyl]-4-yl)-3,4-dihydro-2H-pyrano[3,2-b]pyridin-4-yl)benzamide]"
11,305 nM,"Cn1cnc(C(=O)N[C@]2(c3ccc(OC(F)(F)F)c(F)c3)CCOc3cccnc32)c1 [Example 179, (S)-N-(4-(3-fluoro-4-(trifluoromethoxy)phenyl)-3,4-dihydro-2H-pyrano[3,2-b]pyridin-4-yl)-1-methyl-1H-imidazole-4-carboxamide]"
12,284 nM,"O=C(N[C@]1(c2ccc(-c3ccncc3)cc2)CCOc2cccnc21)c1ccc(F)cc1 [Example 116, (S)-4-fluoro-N-(4-(4-(pyridin-4-yl)phenyl)-3,4-dihydro-2H-pyrano[3,2-b]pyridin-4-yl)benzamide]"
13,386 nM,"O=C(Nc1ccc(C(=O)O)cc1)N[C@]1(c2ccc(OC(F)(F)F)c(F)c2)CCOc2cccnc21 [Example 108, (S)-4-(3-(4-(3-fluoro-4-(trifluoromethoxy)phenyl)-3,4-dihydro-2H-pyrano[3,2-b]pyridin-4-yl)ureido)benzoic acid]"
14,106 nM,"COC(=O)C1CCN(C(=O)N[C@]2(c3ccc(OC(F)(F)F)c(F)c3)CCOc3cccnc32)CC1 [Example 99, (S)-methyl 1-((4-(3-fluoro-4-(trifluoromethoxy)phenyl)-3,4-dihydro-2H-pyrano[3,2-b]pyridin-4-yl)carbamoyl)piperidine-4-carboxylate]"
15,17 nM,"O=C(Nc1ccc(F)nc1)N[C@]1(c2ccc(OC(F)(F)F)c(F)c2)CCOc2cccnc21 [Example 66, (S)-1-(4-(3-fluoro-4-(trifluoromethoxy)phenyl)-3,4-dihydro-2H-pyrano[3,2-b]pyridin-4-yl)-3-(6-fluoropyridin-3-yl)urea 2,2,2-trifluoroacetate]"
16,128 nM,"COC(=O)c1ccc(C(=O)N[C@]2(c3ccc(OC(F)(F)F)cc3F)CCOc3cccnc32)nc1 [Example 174, (S)-methyl 6-((4-(2-fluoro-4-(trifluoromethoxy)phenyl)-3,4-dihydro-2H-pyrano[3,2-b]pyridin-4-yl)carbamoyl) nicotinate]"
17,2620 nM,"O=C(N[C@]1(c2ccc(C(F)(F)F)cc2)CCOc2cccnc21)c1ccnnc1 [Example 37, (S)-N-(4-(4-(trifluoromethyl)phenyl)-3,4-dihydro-2H-pyrano[3,2-b]pyridin-4-yl)pyridazine-4-carboxamide]"
18,58 nM,"O=C(Nc1ccncn1)N[C@]1(c2ccc(OC(F)(F)F)c(F)c2)CCOc2cccnc21 [Example 89, (S)-1-(4-(3-fluoro-4-(trifluoromethoxy)phenyl)-3,4-dihydro-2H-pyrano[3,2-b]pyridin-4-yl)-3-(pyrimidin-4-yl)urea]"
19,7 nM,"COC(=O)c1cc2ccc(C(=O)N[C@]3(c4ccc(OC(F)(F)F)c(F)c4)CCOc4cccnc43)cc2n1C [Example 196, (S)-methyl 6-((4-(3-fluoro-4-(trifluoromethoxy)phenyl)-3,4-dihydro-2H-pyrano[3,2-b]pyridin-4-yl)carbamoyl)-1-methyl-1H-indole-2-carboxylate]"
20,94 nM,"O=C(Nc1ccccn1)N[C@]1(c2ccc(OC(F)(F)F)c(F)c2)CCOc2cccnc21 [Example 95, (S)-1-(4-(3-fluoro-4-(trifluoromethoxy)phenyl)-3,4-dihydro-2H-pyrano[3,2-b]pyridin-4-yl)-3-(pyridin-2-yl)urea]"
21,1640 nM,"O=C(N[C@]1(c2ccc(-c3ccc(CO)cc3)cc2)CCOc2cccnc21)c1ccc(F)cc1 [Example 151, (S)-4-fluoro-N-(4-(4′-(hydroxymethyl)-[1,1′-biphenyl]-4-yl)-3,4-dihydro-2H-pyrano[3,2-b]pyridin-4-yl)benzamide]"
22,14 nM,"O=C(NC1(c2ccccc2)CCOc2cccnc21)c1ccc2[nH]c(=O)oc2c1 (stereo not drawn) [Example 26, 2-oxo-N-(4-phenyl-3,4-dihydro-2H-pyrano[3,2-b]pyridin-4-yl)-2,3-dihydrobenzo[d]oxazole-6-carboxamide]"
23,524 nM,"O=C(N[C@]1(c2ccc(-c3ccccc3O)cc2)CCOc2cccnc21)c1ccc(F)cc1 [Example 120, (S)-4-fluoro-N-(4-(2′-hydroxy-[1,1′-biphenyl]-4-yl)-3,4-dihydro-2H-pyrano[3,2-b]pyridin-4-yl)benzamide]"
24,12 nM,"CS(=O)(=O)Nc1ccc(C(=O)N[C@]2(c3ccc(OC(F)(F)F)c(F)c3)CCOc3cccnc32)nc1 [Example 65, (S)—N-(4-(3-fluoro-4-(trifluoromethoxy)phenyl)-3,4-dihydro-2H-pyrano[3,2-b]pyridin-4-yl)-5-(methylsulfonamido)picolinamide]"
25,25 nM,"O=C(Nc1ccc(F)cc1)N[C@]1(c2ccc(C(F)(F)F)cc2)CCOc2cccnc21 [Example 74, (S)-1-(4-fluorophenyl)-3-(4-(4-(trifluoromethyl)phenyl)-3,4-dihydro-2H-pyrano[3,2-b]pyridin-4-yl)urea]"
26,86 nM,"O=C(O)c1ccc(C(=O)N[C@]2(c3ccc(OC(F)(F)F)c(F)c3)CCOc3cccnc32)s1 [Example 336, (S)-5-((4-(3-fluoro-4-(trifluoromethoxy)phenyl)-3,4-dihydro-2H-pyrano[3,2-b]pyridin-4-yl)carbamoyl) thiophene-2-carboxylic acid 2,2,2-trifluoroacetate]"
27,336 nM,"COc1ncc(-c2ccc([C@@]3(NC(=O)c4ccc(F)cc4)CCOc4cccnc43)cc2)cn1 [Example 127, (S)-4-fluoro-N-(4-(4-(2-methoxypyrimidin-5-yl)phenyl)-3,4-dihydro-2H-pyrano[3,2-b]pyridin-4-yl)benzamide]"
28,25.8 nM,"O=C(N[C@]1(c2ccc(OC(F)(F)F)cc2)CCOc2cccnc21)c1ccsn1 [Example 232, (S)-N-(4-(4-(trifluoromethoxy)phenyl)-3,4-dihydro-2H-pyrano[3,2-b]pyridin-4-yl)isothiazole-3-carboxamide formate]"
29,14 nM,"CC(C)c1cc(C(=O)N[C@]2(c3ccc(OC(F)(F)F)c(F)c3)CCOc3cccnc32)ccc1C(=O)O [Example 292, (S)-4-((4-(3-fluoro-4-(trifluoromethoxy)phenyl)-3,4-dihydro-2H-pyrano[3,2-b]pyridin-4-yl)carbamoyl)-2-isopropylbenzoic acid]"
30,74 nM,"Cn1cc2c(C(=O)N[C@]3(c4ccc(OC(F)(F)F)cc4)CCOc4cccnc43)cccc2n1 [Example 264, (S)-2-methyl-N-(4-(4-(trifluoromethoxy)phenyl)-3,4-dihydro-2H-pyrano[3,2-b]pyridin-4-yl)-2H-indazole-4-carboxamide formate]"
